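How tested: cells in 96-well plates exposed to compound for 48 hours at five concentrations. GI50 = concentration required for 50% inhibition of growth. TGI is the concentration that stops growth completely.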
How the values were obtained:
Test in all cases: NCI tumour cell line growth inhibition, 48 h
A549 NSCLC = tested on: A549 NSCLC
HCT-15 colon = tested on: HCT-15 colon
NCI-H226 lung = tested on: NCI-H226 lung
NCI-H23 lung = tested on: NCI-H23 lung
RPMI-8226 leukemia = tested on: RPMI-8226 leukemia
SK-OV-3 ovarian = tested on: SK-OV-3 ovarian
SW-620 colon = tested on: SW-620 colon
U251 CNS = tested on: U251 CNS
HCT-116 colon = tested on: HCT-116 colon
NCI-H460 lung = tested on: NCI-H460 lung

Structure (SMILES) | TGI (A549 NSCLC) | TGI (HCT-15 colon) | TGI (NCI-H226 lung) | TGI (NCI-H23 lung) | TGI (RPMI-8226 leukemia) | TGI (SK-OV-3 ovarian) | TGI (SW-620 colon) | TGI (U251 CNS) | GI50 (A549 NSCLC) | GI50 (HCT-116 colon) | TGI (HCT-116 colon) | GI50 (HCT-15 colon) | GI50 (NCI-H226 lung) | GI50 (NCI-H23 lung) | GI50 (NCI-H460 lung) | TGI (NCI-H460 lung) | GI50 (SK-OV-3 ovarian) | GI50 (SW-620 colon) | GI50 (U251 CNS) | GI50 (RPMI-8226 leukemia)
S=C(Nc1ccccc1)Nc1[nH]c(=S)sc1-c1nc2ccccc2[nH]1 | > 100 µM | > 100 µM | 29.4 µM | > 100 µM | > 100 µM | 80.9 µM | > 100 µM | > 100 µM | – | – | – | – | – | – | – | – | – | – | – | –
COc1ccc(C[C@H]2C[C@@H](O)[C@@H](C)C/C=C/Cc3cccc(O)c3C(=O)O2)cn1 | > 100 µM | 88.8 µM | > 100 µM | 56.8 µM | – | > 100 µM | > 100 µM | 36.1 µM | 28.6 µM | 19.5 µM | 37.6 µM | 28.9 µM | 27.3 µM | 24.2 µM | 22.7 µM | 96.3 µM | 45.6 µM | 31.6 µM | 17.9 µM | –
COc1cccc(-c2nn(-c3ccccc3)cc2-c2ccnc(NCCNC(=O)Nc3ccc(Cl)c(Cl)c3)c2)c1 | 12.5 µM | 10.7 µM | 18.7 µM | 11.6 µM | 7.52 µM | 14.4 µM | 11.1 µM | 7.73 µM | 3.38 µM | 2.17 µM | 5.33 µM | 3 µM | 3.63 µM | 2.46 µM | 1.88 µM | 4.33 µM | 4.06 µM | 2.7 µM | 2.65 µM | 2.6 µM
CCOP(=O)(OCC)/C(C#N)=C\c1cccc2ccccc12 | > 100 µM | > 100 µM | > 73.8 µM | > 100 µM | > 66.5 µM | > 100 µM | > 100 µM | > 100 µM | – | – | > 100 µM | – | – | – | – | > 100 µM | – | – | – | –
COc1ccc2nc3ccc(OC)cc3c(SCCCN)c2c1 | 38.5 µM | 20.2 µM | 65.7 µM | 15.4 µM | 3.92 µM | 29.9 µM | 3.15 µM | > 67.3 µM | 12.9 µM | 3.21 µM | 12.6 µM | 3.17 µM | 19.2 µM | 5.37 µM | 8.66 µM | 31.6 µM | 14.2 µM | 1.44 µM | 9.09 µM | 1.78 µM
COc1ccccc1Cn1cc2c(c1)-c1oncc1CC2 | > 75 µM | > 61.2 µM | > 100 µM | > 55.3 µM | – | 8.44 µM | > 100 µM | 39 µM | 0.825 µM | 0.39 µM | 13.6 µM | 0.535 µM | 6.99 µM | 0.8 µM | 0.334 µM | 4.75 µM | 0.46 µM | 0.351 µM | 0.503 µM | 0.454 µM
O=C(N[C@@H]1CCCc2ccccc21)[C@H](CCC(=O)N1CCN(C2CCCCC2)CC1)N1C(=O)[C@@H](N2C(=O)OC[C@@H]2c2ccccc2)[C@H]1/C=C/c1ccccc1 | 14.8 µM | 12.3 µM | 18.4 µM | 19.7 µM | 5.34 µM | 14 µM | 10.8 µM | 5.42 µM | 2.6 µM | 1.8 µM | 4.68 µM | 2.97 µM | 4.29 µM | 3.7 µM | 2.65 µM | 7.23 µM | 3.02 µM | 3.06 µM | 2.2 µM | 1.54 µM
COc1cc[nH]c1/C=C1\C(=O)Nc2ccc(F)c(C#CC3(O)CCOCC3)c21 | 2.25 µM | > 15.3 µM | 2.2 µM | 2.61 µM | 1.76 µM | > 25 µM | > 8.38 µM | 5.43 µM | 0.536 µM | 0.538 µM | > 25 µM | 0.481 µM | 0.498 µM | 0.609 µM | 0.637 µM | 2.7 µM | 0.441 µM | 0.619 µM | 0.519 µM | 0.76 µM
Nc1ncnc2occ(-c3ccc(NC(=O)Nc4cc(C(F)(F)F)cc(C(F)(F)F)c4)cc3)c12 | 7.18 µM | 7.83 µM | 4.53 µM | 6.86 µM | 16.4 µM | 6.67 µM | 7.61 µM | 6.64 µM | 3 µM | 2.63 µM | 5.64 µM | 2.98 µM | 0.584 µM | 3.12 µM | 3.1 µM | 6.7 µM | 3.37 µM | 4.01 µM | 3.28 µM | 3.68 µM
CC1=NN(C(=O)CC(=O)Nc2cccc(Cl)c2)C(=O)C1N=Nc1ccc(S(N)(=O)=O)cc1 (configuration not stated) | > 100 µM | > 100 µM | > 100 µM | > 100 µM | > 100 µM | > 100 µM | > 100 µM | > 100 µM | – | – | > 100 µM | – | – | – | – | > 100 µM | – | – | – | –
CC1(C)N=C(N)N=C(N)N1c1ccc(OCC(=O)Nc2cccc(S(=O)(=O)F)c2)c(Cl)c1 | > 100 µM | > 100 µM | 77.2 µM | > 45.4 µM | > 100 µM | > 100 µM | > 100 µM | > 100 µM | – | – | > 100 µM | – | – | – | – | > 100 µM | – | – | – | –
CCN(CC)CCOc1ccc(/C=C2\C[C@H]3[C@@H]4CC=C5C[C@@H](OC(C)=O)CC[C@]5(C)[C@H]4CC[C@]3(C)[C@H]2OC(C)=O)cc1OC | 19.6 µM | > 50 µM | 31.7 µM | 16.1 µM | 24.2 µM | – | > 50 µM | 26.2 µM | 9.86 µM | 9.76 µM | 18.6 µM | 7.38 µM | 11.3 µM | 7.96 µM | 7.6 µM | 34.6 µM | – | 16.8 µM | 10.3 µM | 1.4 µM
O=C(O)c1cc(Cl)cc(NC(=O)C(Cl)Cl)c1Cl | > 100 µM | > 100 µM | > 100 µM | > 100 µM | > 100 µM | > 100 µM | > 100 µM | > 100 µM | – | – | > 100 µM | – | – | – | – | > 100 µM | – | – | – | –
COc1ccc2c(c1O)[C@@]13C=C(O)C(=O)C=C1[C@@H](C2)N(C)CC3 | > 100 µM | > 100 µM | > 100 µM | > 100 µM | > 100 µM | > 100 µM | – | > 100 µM | – | – | > 100 µM | – | – | – | – | > 100 µM | – | – | – | –
CC1=CC2=C(C)C3(CC3)[C@@](C)(O)C(=O)C2=C1 | > 0.975 µM | 0.454 µM | 0.492 µM | 0.186 µM | > 1 µM | 0.799 µM | > 1 µM | 0.507 µM | – | – | 0.357 µM | – | – | – | – | 0.431 µM | – | – | – | –

From PubChem BioAssay (NCI)
